Key:
PB2long N510T mutant = assay type: binding, influenza A/Udorn/307/1972(H3N2)
[1] = tested on: FluA Udorn replicon with PB2 N510T; assay type: cell-based, influenza A/H3N2/Udorn/72 in 293 T cells

Structure (SMILES): O=C(O)[C@H]1C2CCC(CC2)[C@@H]1Nc1nc(-c2c[nH]c3ncc(F)cc23)ncc1F [VX-787]
- KD fold change, PB2long N510T (PB2long N510T mutant): 90 fold
- fold loss of cellular EC50, N510T vs WT replicon [1]: 90 fold
